Reference: ChEMBL document CHEMBL1201862, “PubChem BioAssay data set” (2004)
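Where inhibition never reached the appropriate level, the endpoint shown equals the highest concentration tested. Otherwise, values were interpolated linearly from a five-concentration, 48-hour dose response in 96-well plates. GI50 is the concentration that inhibits growth by half.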 The source made the active and inactive calls. No stated cut-off is given here; in the data, active = GI50 up to about 1.1 µM and inactive = higher.

Columns and labels:
Assay in all cases: growth of human tumour cells (NCI), 48 h
786-0 = system: 786-0
A498 = system: A498
A549 = system: A549
ACHN = system: ACHN
CCRF-CEM = system: CCRF-CEM
HCC 2998 = system: HCC 2998
HL-60 = system: HL-60
IGROV-1 = system: IGROV-1
K562 = system: K562
M14 = system: M14
MDA-MB-231 = system: MDA-MB-231
MDA-N = system: MDA-N
NCI-H226 = system: NCI-H226
OVCAR-3 = system: OVCAR-3
OVCAR-5 = system: OVCAR-5
OVCAR-8 = system: OVCAR-8
SF-295 = system: SF-295
SW-620 = system: SW-620
UACC-257 = system: UACC-257
UO-31 = system: UO-31

| SMILES | GI50 (786-0) | GI50 (A498) | GI50 (A549) | GI50 (ACHN) | GI50 (CCRF-CEM) | GI50 (HCC 2998) | GI50 (HL-60) | GI50 (IGROV-1) | GI50 (K562) | GI50 (M14) | GI50 (MDA-MB-231) | GI50 (MDA-N) | GI50 (NCI-H226) | GI50 (OVCAR-3) | GI50 (OVCAR-5) | GI50 (OVCAR-8) | GI50 (SF-295) | GI50 (SW-620) | GI50 (UACC-257) | GI50 (UO-31) |
| --- | --- | --- | --- | --- | --- | --- | --- | --- | --- | --- | --- | --- | --- | --- | --- | --- | --- | --- | --- | --- |
| Cc1ccc(S(=O)(=O)N/N=C2/CCCOC2)cc1 | > 100 µM (inactive) | > 100 µM (inactive) | > 100 µM (inactive) | > 100 µM (inactive) | > 100 µM (inactive) | > 100 µM (inactive) | > 100 µM (inactive) | > 100 µM (inactive) | > 100 µM (inactive) | > 100 µM (inactive) | > 100 µM (inactive) | > 100 µM (inactive) | > 100 µM (inactive) | > 100 µM (inactive) | > 100 µM (inactive) | > 100 µM (inactive) | > 100 µM (inactive) | > 100 µM (inactive) | > 100 µM (inactive) | > 100 µM (inactive) |
| O=C(c1ccccc1)c1sc2c(=O)c(C(=O)c3ccccc3)c(C(=O)c3ccccc3)sc2c(=O)c1C(=O)c1ccccc1 | 32.1 µM (inactive) | > 100 µM (inactive) | > 100 µM (inactive) | 51.9 µM (inactive) | 23.8 µM (inactive) | 19.5 µM (inactive) | 21.5 µM (inactive) | 15.6 µM (inactive) | 15.9 µM (inactive) | 31.5 µM (inactive) | > 100 µM (inactive) | 32.2 µM (inactive) | 82.4 µM (inactive) | 98.6 µM (inactive) | > 100 µM (inactive) | 35.4 µM (inactive) | 96.6 µM (inactive) | 21.8 µM (inactive) | > 100 µM (inactive) | 5.97 µM (inactive) |
| CN(C)CC1CCC/C(=C\c2ccc(Cl)cc2)C1=O (stereo not given) | 1.68 µM (inactive) | 17.3 µM (inactive) | 16.9 µM (inactive) | 2.57 µM (inactive) | 0.713 µM (active) | 7.38 µM (inactive) | 1.37 µM (inactive) | 3.21 µM (inactive) | 1 µM (active) | 2.28 µM (inactive) | 3.05 µM (inactive) | 1.94 µM (inactive) | 14.7 µM (inactive) | 3.21 µM (inactive) | 16.9 µM (inactive) | 3.85 µM (inactive) | 14.2 µM (inactive) | 1.93 µM (inactive) | 4.91 µM (inactive) | 2.25 µM (inactive) |
| OCC1OC(n2cnc3cccnc32)CC1O (stereo not given) | > 100 µM (inactive) | > 100 µM (inactive) | > 100 µM (inactive) | > 100 µM (inactive) | > 100 µM (inactive) | > 100 µM (inactive) | > 100 µM (inactive) | > 100 µM (inactive) | > 100 µM (inactive) | > 100 µM (inactive) | > 100 µM (inactive) | > 100 µM (inactive) | > 100 µM (inactive) | > 100 µM (inactive) | > 100 µM (inactive) | > 100 µM (inactive) | > 100 µM (inactive) | > 100 µM (inactive) | > 100 µM (inactive) | > 100 µM (inactive) |
| COC(=O)C(Cc1ccc2c(c1)CCCC2)Cc1cc2c(cc1C(O)OC)CCC2 (stereo not given) | 33.3 µM (inactive) | > 100 µM (inactive) | 41.5 µM (inactive) | 67.1 µM (inactive) | 58.9 µM (inactive) | 57.9 µM (inactive) | 11.8 µM (inactive) | > 100 µM (inactive) | 35.1 µM (inactive) | 93.3 µM (inactive) | > 100 µM (inactive) | 56.8 µM (inactive) | > 100 µM (inactive) | 89.7 µM (inactive) | 80.9 µM (inactive) | > 100 µM (inactive) | 61.5 µM (inactive) | 67.1 µM (inactive) | 14.7 µM (inactive) | 93.8 µM (inactive) |
| CC(=O)O[C@H]1C[C@]2(C)C(CCC3O[C@@]32C)[C@@]2(CC(c3ccoc3)OC2O)[C@@H]1C (stereo not given in full) | > 100 µM (inactive) | > 100 µM (inactive) | > 100 µM (inactive) | > 100 µM (inactive) | 30.7 µM (inactive) | > 100 µM (inactive) | 21.6 µM (inactive) | > 100 µM (inactive) | 35.8 µM (inactive) | > 100 µM (inactive) | > 100 µM (inactive) | > 100 µM (inactive) | > 100 µM (inactive) | 60.7 µM (inactive) | > 100 µM (inactive) | > 100 µM (inactive) | > 100 µM (inactive) | > 100 µM (inactive) | 63.4 µM (inactive) | 59.3 µM (inactive) |
| COc1ccc(NC2C(=O)C3(C)CCC2C3(C)C)cc1 (stereo not given) | > 100 µM (inactive) | > 100 µM (inactive) | > 100 µM (inactive) | > 100 µM (inactive) | > 100 µM (inactive) | > 100 µM (inactive) | 29.3 µM (inactive) | > 100 µM (inactive) | 63.7 µM (inactive) | > 100 µM (inactive) | > 100 µM (inactive) | > 100 µM (inactive) | 67.8 µM (inactive) | > 100 µM (inactive) | > 100 µM (inactive) | > 100 µM (inactive) | > 100 µM (inactive) | > 100 µM (inactive) | 49 µM (inactive) | 54.7 µM (inactive) |
| COc1ccc(C[C@H]2NC[C@H](OC(C)=O)[C@H]2OC(C)=O)cc1 | 0.0776 µM (active) | 0.302 µM (active) | 0.151 µM (active) | 0.106 µM (active) | 0.126 µM (active) | 0.115 µM (active) | 0.1 µM (active) | 0.15 µM (active) | 0.221 µM (active) | 0.0951 µM (active) | 0.308 µM (active) | 0.133 µM (active) | 0.172 µM (active) | 0.233 µM (active) | 0.122 µM (active) | 0.191 µM (active) | 0.183 µM (active) | 0.186 µM (active) | 0.21 µM (active) | 0.0583 µM (active) |
| c1ccc(C(Oc2noc3ccccc23)c2ccccc2)cc1 | 48.8 µM (inactive) | 39 µM (inactive) | 39.5 µM (inactive) | 51.3 µM (inactive) | 15.9 µM (inactive) | 21.7 µM (inactive) | 23.4 µM (inactive) | 49.9 µM (inactive) | 23.8 µM (inactive) | 25.2 µM (inactive) | 36.2 µM (inactive) | 19.9 µM (inactive) | 50.2 µM (inactive) | 35.2 µM (inactive) | 51.4 µM (inactive) | 45.3 µM (inactive) | 33 µM (inactive) | 30.8 µM (inactive) | 29.5 µM (inactive) | 39.5 µM (inactive) |
| CN1CC2=C(N=C(S)NC2c2ccccc2)/C(=C/c2ccccc2)C1 (stereo not given) | > 100 µM (inactive) | 89.7 µM (inactive) | 30.3 µM (inactive) | 52.6 µM (inactive) | 31.1 µM (inactive) | 29.3 µM (inactive) | > 10 µM (inactive) | 24.5 µM (inactive) | 33 µM (inactive) | 25.4 µM (inactive) | > 10 µM (inactive) | 35.7 µM (inactive) | > 100 µM (inactive) | 99.8 µM (inactive) | > 100 µM (inactive) | > 10 µM (inactive) | 17.9 µM (inactive) | 71.1 µM (inactive) | 91.6 µM (inactive) | 60.5 µM (inactive) |
